Experimental data reported in paper PMC11091863 (RSC Advances, 2024).

Columns and labels:
α-amylase = test: In vitro α-amylase inhibitory assay; settings: for IC50: read-out: The α-amylase activity: IC50 ± SD, DF = 100
α-glucosidase = test: In vitro α-glucosidase inhibitory assay; format: biochemical; settings: for α-Glucosidase activity: IC50 ± SD: DF = 100, five concentrations 10, 5, 1, 0.1, 0.01 μg mL^−1
[1] = target: T1, Human PPAR-γ (Peroxisome Proliferator-Activated Receptor Gamma) (Homo sapiens, UniProt P37231); test: In vitro PPAR-γ transactivation assay; format: biochemical; settings: for PPAR-γ Folds: folds compared to Pioglitazone (= 1)
T1 sequence (P37231 1-505): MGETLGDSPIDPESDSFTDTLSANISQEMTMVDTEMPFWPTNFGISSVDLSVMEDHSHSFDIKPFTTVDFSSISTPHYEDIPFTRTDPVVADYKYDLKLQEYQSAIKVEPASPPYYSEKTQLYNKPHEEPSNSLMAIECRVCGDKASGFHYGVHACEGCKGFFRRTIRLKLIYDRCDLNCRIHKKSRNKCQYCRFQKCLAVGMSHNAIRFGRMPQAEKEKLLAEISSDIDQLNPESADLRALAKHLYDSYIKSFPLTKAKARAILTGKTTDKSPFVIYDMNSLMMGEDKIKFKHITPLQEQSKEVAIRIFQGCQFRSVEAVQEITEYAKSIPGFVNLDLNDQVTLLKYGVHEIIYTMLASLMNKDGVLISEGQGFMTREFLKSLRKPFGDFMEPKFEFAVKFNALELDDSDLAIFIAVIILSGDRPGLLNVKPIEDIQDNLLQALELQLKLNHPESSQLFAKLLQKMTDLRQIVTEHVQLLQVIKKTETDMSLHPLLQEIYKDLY

Compound | The α-amylase activity: Inhibitory percentage at 100 μg mL^−1 (α-amylase) | α-Glucosidase activity: Inhibitory potential at 10 μg mL^−1 (α-glucosidase) | IC50 [1] | PPAR-γ Folds [1] | Increase of α-amylase inhibitory potency, fold (α-amylase; compound 2 relative to derivative 3) | IC50 (α-amylase) | α-Glucosidase activity: IC50 ± SD (α-glucosidase)
C[C@H]1O[C@H](O[C@H]2[C@H](O)[C@@H](O)[C@@H](O[C@H]3[C@H](O)[C@@H](O)C(O)O[C@@H]3CO)O[C@@H]2CO)[C@H](O)[C@@H](O)[C@@H]1N[C@H]1C=C(CO)[C@@H](O)[C@H](O)[C@H]1O (stereo partly drawn) [Acarbose, reference compound] | 96.5% | 90.1% |  |  |  |  | 
N#CC(C#N)=C(N)c1cc2cc(S(N)(=O)=O)ccc2oc1=N [Compound 3, 3-(1-Amino-2,2-dicyanovinyl)-2-imino-2H-chromene-6-sulfonamide] | 96% |  |  |  |  | 14.6 ± 0.16 µM | 
CCOC(=O)c1cc2cc(S(N)(=O)=O)ccc2oc1=O [Compound 5, Ethyl 2-oxo-6-sulfamoyl-2H-chromene-3-carboxylate] | 93.4% |  |  |  |  | 32.6 ± 0.33 µM | 
NS(=O)(=O)c1ccc2oc(=O)c(C(=O)Nc3ccc(F)cc3)cc2c1 [Compound 6, N-(4-fluorophenyl)-2-oxo-6-sulfamoyl-2H-chromene-3-carboxamide] | 95.4% |  |  |  |  | 2.11 ± 0.03 µM | 
NS(=O)(=O)c1ccc2oc(=O)c(C(=O)Nc3cccc(C(F)(F)F)c3)cc2c1 [Compound 7, 2-Oxo-6-sulfamoyl-N-(3-(trifluoromethyl)phenyl)-2H-chromene-3-carboxamide] | 96.2% |  |  |  |  | 4.39 ± 0.06 µM | 
CCOC(=O)c1ccc(NC(=O)c2cc3cc(S(N)(=O)=O)ccc3oc2=O)cc1 [Compound 9, Ethyl 4-(2-oxo-6-sulfamoyl-2H-chromene-3-carboxamido)benzoate] | 96.6% | 83.8% | 8.9 µM | ~1.32 |  | 1.08 ± 0.02 µM | 2.44 ± 0.09 µg/mL

Other lines, results leading:

The α-amylase activity: Inhibitory percentage at 100 μg mL^−1 (α-amylase) | α-Glucosidase activity: Inhibitory potential at 10 μg mL^−1 (α-glucosidase) | IC50 [1] | PPAR-γ Folds [1] | Increase of α-amylase inhibitory potency, fold (α-amylase; compound 2 relative to derivative 3) | IC50 (α-amylase) | α-Glucosidase activity: IC50 ± SD (α-glucosidase) | Compound
96.1% | 90.7% | 12.6 µM | ~1.55 | ~8.31 fold | 1.76 ± 0.01 µM | 0.548 ± 0.02 µg/mL | N#Cc1cc2cc(S(N)(=O)=O)ccc2oc1=N [Compound 2, 3-Cyano-2-imino-2H-chromene-6-sulfonamide]
94.2% |  |  |  |  | 8.55 ± 0.31 µM |  | CC(=O)c1cc2cc(S(N)(=O)=O)ccc2oc1=O [Compound 4, 3-Acetyl-2-oxo-2H-chromene-6-sulfonamide]
95.4% |  |  |  |  | 4.23 ± 0.06 µM |  | NS(=O)(=O)c1ccc2oc(=O)c(C(=O)Nc3ccc(Cl)cc3)cc2c1 [Compound 8, N-(4-chlorophenyl)-2-oxo-6-sulfamoyl-2H-chromene-3-carboxamide]
